Experimental data: PMC12696353, “Structural insights into endogenous agonist selectivity of aminergic receptors from the octopamine β2 receptor” (PNAS Nexus, 2025)
Changes are numbered by the printed parent chain. Entries after “also recorded” stand apart in the source; their conditions may differ. Like-named read-outs stand apart in the source and are kept apart here.

What was measured:
[1] = test system: is-octβ2R F189^45.52A mutant; test: TGFα shedding assay, mutant F189^45.52A; format: cell-based, Ixodes scapularis; conditions: Table S6
Experimental: (§1) The TGFα shedding assay was performed as previously described ([28]). […] The cells were transfected using lipofectamine 2000 with plasmids encoding alkaline phosphatase–tagged TGFα (AP-TGFα) (2.5 ng/mL), is-octβ2Rs (1 ng/mL), and Gαq/s (0.5 ng/mL). After 24 h, the cells were washed with phosphate-buffered saline and resuspended in Hank's balanced salt solution (HBSS) (supplemented with 5 mM HEPES [pH 7.4]). The cells (90 μL/well) were plated in a 96-well plate and incubated with 10 μL of HBSS solution containing various concentrations of compounds for 1 h at 37 °C. Following centrifugation (200 × g, 2 min), 80 μL of the supernatant was transferred to a separate 96-well plate. Subsequently, 80 µL of 2× para-nitrophenyl phosphate (pNPP) buffer (containing 10 mM pNPP in 40 mM Tris–HCl [pH 9.5], 40 mM NaCl, and 10 mM MgCl2) was added to both the supernatant and cell-containing plates. The optical density at 405 nm of both plates was measured before and after a 1 h incubation at room temperature using a microplate reader (SpectraMax iD3, Molecular Devices, San Jose, CA, United States). AP-TGFα release was calculated using the following formulas:
(§2) ΔOD405=OD450(1h)−OD405(0h)AP−TGFαinsupernatant(%)=(ΔOD405Sup/[ΔOD450Sup+ΔOD405Cell])×125AP−TGFαrelease(%)=AP−TGFαinsupernatantunderastimulatedcondition(%)−AP−TGFαinsupernatantunderavehicle−treatedcondition […]

[2] = test system: is-octβ2R Y332^7.43A mutant; test: TGFα shedding assay, mutant Y332^7.43A; format: cell-based, Ixodes scapularis; conditions: Table S6
Experimental: as §1, §2

[3] = target: T1, is-octβ2R T60^1.41P mutant (Ixodes scapularis, UniProt A0ACM8E5E8); test: TGFα shedding assay, amitraz-resistant mutant T60^1.41P; format: cell-based; conditions: Table S4
T1 sequence (A0ACM8E5E8 1-384 T39P): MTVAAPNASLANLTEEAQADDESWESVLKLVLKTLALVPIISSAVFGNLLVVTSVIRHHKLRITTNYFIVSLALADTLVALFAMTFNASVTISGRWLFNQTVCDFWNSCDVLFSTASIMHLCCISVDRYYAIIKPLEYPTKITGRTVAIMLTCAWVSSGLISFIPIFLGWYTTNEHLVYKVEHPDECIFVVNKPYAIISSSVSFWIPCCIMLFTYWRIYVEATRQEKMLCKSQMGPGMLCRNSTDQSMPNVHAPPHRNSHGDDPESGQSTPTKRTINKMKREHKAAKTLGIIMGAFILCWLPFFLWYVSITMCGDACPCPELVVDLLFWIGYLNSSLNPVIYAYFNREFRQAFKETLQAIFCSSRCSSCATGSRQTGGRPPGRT
Experimental: as §1
(§3) ΔOD405=OD450(1h)−OD405(0h)AP−TGFαinsupernatant(%)=(ΔOD405Sup/[ΔOD450Sup+ΔOD405Cell])×125AP−TGFαrelease(%)=AP−TGFαinsupernatantunderastimulatedcondition(%)−AP−TGFαinsupernatantunderavehicle−treatedcondition
(§4) where OD405 (0 h) and […] represent the OD405 before and after a 1 h incubation, respectively, and OD405Sup and OD405Cell represent the OD405 of supernatant and cell plates, respectively. For all pharmacological analyses, nonlinear regression curve fitting was performed with a 3-parameter sigmoid model (Hill coefficient = 1) using Prism 8 (GraphPad Software, La Jolla, CA, United States).

[4] = test system: is-octβ2R W300^6.48A mutant; test: TGFα shedding assay, mutant W300^6.48A; format: cell-based, Ixodes scapularis; conditions: Table S6
Experimental: as §1, §2

[5] = target: is-octβ2R V111^3.33A mutant (Ixodes scapularis, UniProt A0ACM8E5E8, V111A); test: TGFα shedding assay, mutant V111^3.33A; format: cell-based
Experimental: as §1, §2

[6] = target: T2, is-octβ2R Y215^5.58H mutant (Ixodes scapularis, UniProt A0ACM8E5E8, Y215H); test: TGFα shedding assay, amitraz-resistant mutant Y215^5.58H; format: cell-based
T2 sequence (A0ACM8E5E8 1-384 Y215H): T1 sequence (A0ACM8E5E8 1-384 T39P) with P39T, Y215H
Experimental: as §1, §3, §4

[7] = test system: is-octβ2R Y215^5.58H mutant; test: as above; format: cell-based, Ixodes scapularis; conditions: versus wild type
Experimental: as §1, §3, §4

[8] = target: is-octβ2R S203^5.46A mutant (Ixodes scapularis, UniProt A0ACM8E5E8, S203A); test: TGFα shedding assay, mutant S203^5.46A; format: cell-based
Experimental: as §1, §2

[9] = test system: is-octβ2R Y307^6.55A mutant; test: TGFα shedding assay, mutant Y307^6.55A; format: cell-based, Ixodes scapularis; conditions: Table S6
Experimental: as §1, §2

[10] = test system: is-octβ2R D110^3.32A mutant; test: TGFα shedding assay, mutant D110^3.32A; format: cell-based, Ixodes scapularis; conditions: Table S6
Experimental: as §1, §2

[11] = target: is-octβ2R T115^3.37A mutant (Ixodes scapularis, UniProt A0ACM8E5E8, T115A); test: TGFα shedding assay, mutant T115^3.37A; format: cell-based
Experimental: as §1, §2

[12] = test system: is-octβ2R S199^5.42A mutant; test: TGFα shedding assay, mutant S199^5.42A; format: cell-based, Ixodes scapularis
Experimental: as §1, §3, §4

[13] = test system: is-octβ2R Y195^5.38A mutant; test: TGFα shedding assay, mutant Y195^5.38A; format: cell-based, Ixodes scapularis; conditions: Table S6
Experimental: as §1, §2

[14] = target: is-octβ2R S114^3.36A mutant (Ixodes scapularis, UniProt A0ACM8E5E8, S114A); test: TGFα shedding assay, mutant S114^3.36A; format: cell-based; conditions: Table S6
Experimental: as §1, §2

[15] = target: is-octβ2R F328^7.39A mutant (Ixodes scapularis, UniProt A0ACM8E5E8, F328A); test: TGFα shedding assay, mutant F328^7.39A; format: cell-based
Experimental: as §1, §2

[16] = Table S6, read-out: logEC50 (converted)

SMILES	logEC50 [1]	logEC50 [2]	EC50 [3]	logEC50 [4]	EC50 [6]	change of EC50 by the Y215^5.58H mutation [7]	reduction of maximal response (Emax) by the Y215^5.58H mutation [7]	logEC50 [9]	logEC50 [10]	logEC50 ([12]; Table S6)	logEC50 [13]	also measured
CN/C=N/c1ccc(C)cc1C [DPMF, N-2,4-dimethylphenyl-N′-methylformamidine]	no activity	signal observed only at a concentration of 10^−5 M	0.00794 µM	no activity	0.00631 µM	unaffected	~50%	no activity	no activity	signal observed only at 10-5 M; also recorded: signal observed only at 10^−5 M	no activity	EC50 [5, 16]: 0.251 µM; EC50 ([5]; read-out: EC50): 0.32 µM; EC50 [8, 16]: 0.00126 µM; EC50 ([8]; read-out: EC50): 0.0013 µM; EC50 [11, 16]: 0.00501 µM; EC50 ([11]; read-out: EC50): 0.005 µM; EC50 [14]: 0.251 µM
NCC(O)c1ccc(O)cc1 (centres unmarked) [Octopamine, octopamine]	no activity	signal observed only at 10-5 M	0.01 µM	no activity	0.0158 µM	4 fold	~50%	no activity	no activity	signal observed only at 10-5 M	no activity	EC50 [15, 16]: 1 µM; EC50 ([15]; stated as a range in text, read-out: EC50): ~1 µM; logEC50 ([12]; Table S6, listed as octopamine): signal observed only at 10^−5 M
